Source: patent US8383880B2, “Infertility control of genetically modified fish” (Academia Sinica, priority 2009, dated 2013)

Columns and labels:
[1] = test system: AB strain zebrafish embryos; assay: Tolerable concentration of Mtz for zebrafish (consecutive immersion of embryos); type: in vivo; details: for larvae dead: at 5 dpf
Protocol: In order to determine the tolerable concentration of Mtz for zebrafish, AB strain zebrafish embryos at the single-cell stage were incubated at 28° C. in a range of Mtz concentrations (0-20 mM). We observed obvious abnormal development of larvae at 3 days postfertilization (dpf). The larvae were dead at 5 dpf after consecutive immersions in […] Mtz (100%, n=26/26) and 20 mM Mtz (100%, n=30/30). The nonspecific death of the larvae was first observed at 6 dpf after consecutive immersions in 10 mM Mtz (23%, n=7/30). In contrast, we observed that no larvae died after at least 10 dpf of consecutive immersion in 5 mM Mtz (0%, n=30). Therefore, the optimal Mtz concentration used in the present experiment was 5 mM.

Tg(AOS-eGFP:Ntr) = assay: Fertility assessment, compound transgenic line; type: in vivo, zebrafish
From the text: (§1) To generate compound transgenic lines, the homozygous transgenic zebrafish of each line, Tg(Asp-eGFP:Ntr), Tg(Odf-eGFP:Ntr), and Tg(Sam-eGFP:Ntr), were then crossed with each other to generate double transgenic fish, Tg(AO-eGFP:Ntr)[Tg(Asp-eGFP:Ntr);Tg(Odf-eGFP:Ntr)], Tg(AS-eGFP:Ntr)[Tg(Asp-eGFP:Ntr);Tg(Sam-eGFP:Ntr)], and Tg(OS-eGFP:Ntr)[Tg(Odf-eGFP:Ntr);Tg(Sam-eGFP:Ntr)] and triple-transgenic fish, Tg(AOS-eGFP:Ntr)[Tg(Asp-eGFP:Ntr; Odf-eGFP:Ntr;Sam-eGFP:Ntr)] for experiments. RT-PCR was performed to test the expression of eGFP:Ntr in the testes of all lines. Animals from each cross were divided into four groups based on genotype. The four groups were then used to assess fertility in response to Met administration.
(§2) Fertility was assessed by pairing each heterozygous transgenic fish with a WT mate. At least 20 transgenic fish were tested for each line, and the numbers of fertile zebrafish were compared with wild-type fish. Each male was assessed with multiple females. Zebrafish were labeled infertile if they were unable to produce offspring over a 4-month period.
(§3) After establishing breeding colonies of these three transgenic lines, Tg(Asp-eGFP:Ntr), Tg(Odf-eGFP:Ntr), and Tg(Sam-eGFP:Ntr), it became clear that the male transgenic fish were at intermediate levels of infertility while the female transgenic fish remained fertile after Met treatment. None of the Met-treated adult males crossed with wild-type females were fully successful in spawning fertilized eggs (Table 1). […] To reach high or full (100%) levels of male infertility in Met-treated transgenic zebrafish lines, we generated compound transgenic lines, Tg(AO-eGFP:Ntr), Tg(AS-eGFP:Ntr), Tg(OS-eGFP:Ntr), and Tg(AOS-eGFP:Ntr) by crossing each other of Tg(Asp-eGFP:Ntr), Tg(Odf-eGFP:Ntr), and Tg(Sam-eGFP:Ntr), then examined male infertility after Met treatment (Table 2). At 4 months of age, Met-treated compound transgenic males had three mediate (76.4%), intermediate high (85.7%), high (95.0%), and full (100%) levels of infertility for Tg(OS-eGFP:Ntr), Tg(AO-eGFP:Ntr), Tg(AS-eGFP:Ntr), and Tg(AOS-eGFP:Ntr), respectively. Met-treated compound transgenic females crossed with wild-type zebrafish remained fertile. No gross abnormalities were apparent in any of the Met-untreated compound transgenic zebrafish lines or Met-treated double transgenic females.

Tg(AS-eGFP:Ntr) = assay: Fertility assessment, compound transgenic line; type: in vivo, zebrafish; details: Tg(AS-EGFP:Ntr) females, 5 mM Met every other day for 1 week
From the text: as §1, §2, §3

Tg(AO-eGFP:Ntr) = assay: Fertility assessment, compound transgenic line; type: in vivo, zebrafish; details: Tg(AO-EGFP:Ntr) females, 5 mM Met every other day for 1 week
From the text: as §1, §2, §3

Tg(OS-eGFP:Ntr) = assay: Fertility assessment, compound transgenic line; type: in vivo, zebrafish; details: Tg(OS-EGFP:Ntr) females, 5 mM Met every other day for 1 week
From the text: as §1, §2, §3

[2] = test system: 14 dpf transgenic embryos; assay: Metronidazole dependent cell ablation, dose response in ablating gonad; type: in vivo, zebrafish; details: 5 mM Met, 14 dpf larvae
Protocol: Metronidazole (Met, M3761, Sigma) was dissolved in a standard zebrafish embryo medium with vigorous agitation. Embryos were incubated at 28° C. in the dark, and 14-21 dpf transgenic embryos were used to study the dose response of Met in ablating gonad. In initial studies, 14 dpf embryos were incubated in a range of Met concentrations (1-10 mM).

Tg(Odf-eGFP:Ntr) = assay: Fertility assessment; type: in vivo, zebrafish
Protocol: as §2
(§4) To assess the fertility of Met-treated transgenic zebrafish lines, Tg(Asp-eGFP:Ntr), Tg(Odf-eGFP:Ntr), and Tg(Sam-eGFP:Ntr) lines were crossed with wild-type zebrafish (100-200 eggs per line; three mating pairs per line). The reproductive parameters were compared with wild-type pairs of the same strain (100-200 eggs per five mating pairs). […] In fact, the infertility of Met-treated Tg(Asp-eGFP:Ntr) transgenic males mated with wild-type female fish increased by over 68.0% compared to that of wild-type. […] However, Met-treated transgenic female lines remained fertile as wild-type female.
as §3

Wild type = assay: Fertility assessment; type: in vivo, zebrafish; details: 5 mM Met every other day for 1 week; for Female infertility, Met+: Wild type females; for Male infertility, Met+: Wild type males
Protocol: as §2, §4, §3

Tg(Sam-eGFP:Ntr) = assay: Fertility assessment; type: in vivo, zebrafish
Protocol: as §2, §4, §3

Tg(Asp-eGFP:Ntr) = assay: Fertility assessment; type: in vivo, zebrafish
Protocol: as §2, §4, §3

Cc1ncc([N+](=O)[O-])n1CCO [Mtz]
larvae dead ([1]; 15 nM Mtz, n=26/26): 100% | larvae died ([1]; 5 mM Mtz, at least 10 dpf, n=30): 0% | nonspecific death of the larvae ([1]; 10 mM Mtz, first observed at 6 dpf, n=7/30): 23% | larvae dead ([1]; 20 mM Mtz, n=30/30): 100% | Female infertility, Met+ (Tg(AOS-eGFP:Ntr); Tg(AOS-EGFP:Ntr) females, 5 mM Met every other day for 1 week): 0/38 (0%) | lethality in male triple-transgenic fish (Tg(AOS-eGFP:Ntr); male Tg(AOS-eGFP:Ntr), 5 mM Met treatment for 1 week, listed as Met): occasionally died | Female infertility, Met+ (Tg(AS-eGFP:Ntr)): 0/40 (0%) | Female infertility, Met+ (Tg(AO-eGFP:Ntr)): 0/35 (0%) | Female infertility, Met+ (Tg(OS-eGFP:Ntr)): 0/34 (0%) | deleterious effects on larvae [2]: no deleterious effects | infertility increased compared to that of wild type (Tg(Odf-eGFP:Ntr); Met-treated Tg(Odf-eGFP:Ntr) males mated with wild-type female): over 59.1% | Female infertility, Met+ (Tg(Odf-eGFP:Ntr); Tg(Odf-EGFP:Ntr) females, 5 mM Met every other day for 1 week): 0/22 (0%) | Male infertility, Met+ (Tg(Odf-eGFP:Ntr); Tg(Odf-EGFP:Ntr) males, 5 mM Met every other day for 1 week): 13/22 (59.1%) | Female infertility, Met+ (Wild type; Table 1 (n=28)): 0/28 (0%) | Female infertility, Met+ (Wild type; Table 2 (n=30)): 0/30 (0%) | Male infertility, Met+ (Wild type; Table 1 (n=28)): 0/28 (0%) | Male infertility, Met+ (Wild type; Table 2 (n=30)): 0/30 (0%) | infertility increased compared to that of wild type (Tg(Sam-eGFP:Ntr); Met-treated Tg(Sam-eGFP:Ntr) males mated with wild-type female): > 54.1% | Female infertility, Met+ (Tg(Sam-eGFP:Ntr); Tg(Sam-EGFP:Ntr) females, 5 mM Met every other day for 1 week): 0/24 (0%) | Male infertility, Met+ (Tg(Sam-eGFP:Ntr); Tg(Sam-EGFP:Ntr) males, 5 mM Met every other day for 1 week): 13/24 (54.1%) | infertility increased compared to that of wild-type (Tg(Asp-eGFP:Ntr); Met-treated Tg(Asp-eGFP:Ntr) males mated with wild-type female): over 68.0% | Female infertility, Met+ (Tg(Asp-eGFP:Ntr); Tg(Asp-EGFP:Ntr) females, 5 mM Met every other day for 1 week): 0/25 (0%) | Male infertility, Met+ (Tg(Asp-eGFP:Ntr); Tg(Asp-EGFP:Ntr) males, 5 mM Met every other day for 1 week): 17/25 (68.0%)
